Like-named read-outs stand apart in the source and are kept apart here.
Experiments:
[1] = target: T1, E. histolytica pantothenate kinase (Entamoeba histolytica, UniProt B1N2P3); assay: Phosphoryl donor specificity of EhPanK; assay type: biochemical; settings: donor 100 μM, 0.2 mM pantothenate, 10 mM MgCl2, 37 °C, pH 6; relative to ATP; ND = not detected
Description: EhPanK utilized various nucleoside triphosphates, ATP, CTP, GTP, UTP, dATP, and polyphosphates, as well as deoxynucleotides as phosphoryl donors, with ATP being the best phosphate donor (Table 2).

[2] = target: E. histolytica PanK (EhPanK) recombinant enzyme (Entamoeba histolytica, UniProt B1N2P3); assay: biochemical
Description: We screened 244 compounds from the Kitasato Natural Products Library for inhibition of EhPanK activity. Initially, each compound was dissolved in 50% DMSO and water at a final concentration of 1 mg/mL. Enzymatic reactions were carried out on a black 384-well microtiter plate with a 20 μL reaction mixture composed of 19 μl enzyme mix (100 μM pantothenate, 100 μM ATP, 50 ng of EhPanK recombinant enzyme in kinase buffer (see above) and 1 μl of the individual compounds (final concentration 50 μg/mL or 25–200 μM) at 37 °C for 2 h. After the kinase reaction, ADP was measured using ADP Hunter™ Plus kinase assay kit as described previously. Inhibition values were measured in triplicate.
Fig. S8. Dose-response data of inhibitors against EhPanK inhibitors. IC50 values were determined by dose-response-inhibition using GraphPad Prism (GraphPad Software Inc., San Diego, USA). Data are shown in mean of three replicates.

[3] = test system: E. histolytica trophozoite (HM-1:IMSS cl6); assay: Anti-amebic activity, trophozoite viability (WST-1, 48 h); assay type: cell-based, Entamoeba histolytica; settings: HM-1:IMSS cl6 trophozoites, anaerobic, 35.5 °C, mean ± SEM
Description: Approximately 1 × 10^4 trophozoites of E. histolytica clonal strain HM-1:IMSS cl6 in 200 μl of BI-S-33 medium were dispensed into each well of a 96-well plate and incubated at 35.5 °C for 2 h. Medium was then removed and replaced with 200 μl of BI-S-33 medium that contained various concentrations of each compound. […] The plate was incubated under anaerobic conditions at 35.5 °C for 48 h. After the medium was removed, 100 μl of pre-warmed Opti-MEM I (Life Technologies, Grand Islands, NY, USA) containing one-tenth volume of WST-1 (Roche, Mannheim, Germany) was added. The viability of trophozoites was estimated by measuring absorbance at 450 nm by SpectraMax® Paradigm® (Molecular Devices, CA, USA). Metronidazole was used as positive control at final concentrations of 0.1–10 μM and 0.5% DMSO as negative control. Each assay was performed in triplicate. IC50 values were calculated by least squares curve fitting of the dose inhibition curves using GraphPad Prism (GraphPad Software Inc., San Diego, USA).

[4] = test system: MRC-5 cells (human fibroblast); assay: Cytotoxicity against MRC-5 cells (WST-8, 48 h); assay type: cell-based; settings: MRC5, MRC-5, 48 h, mean ± SEM, read-out: IC50 Normal human cell (MRC-5)
Description: Human fibroblast cells, MRC-5, were cultured on 96-well flat bottom plates at a density of 1.5 × 10^4 cells/well with 100 μl of MEM medium (Life Technologie) containing 10% fetal bovine serum (Hana-nesco Bio, Tokyo, Japan) and 1% penicillin-streptomycin (Life Technologies). Cells were incubated at 37 °C with 5% CO2 for 48 h. Approximately 100 μl of MEM medium containing 5 μl of each compound dissolved in 50% DMSO in water were added to each well. After the plates were incubated for 48 h, approximately 10 μl of WST-8 (Dojindo, Kumamoto, Japan) was added to each well and the plate was incubated at 37 °C with 5% CO2 for 2 h. The absorbance was measured at 450 nm by spectrophotometer (SH-9000Lab, Corona Electric, Ibaraki, Japan). Growth of MRC-5 cells was measured in duplicate. Staurosporine (Kitasato Natural Products Library) was used as a positive (cytotoxic) control in a concentration range of 0.5 pM to 0.1 nM IC50 values were calculated as described previously.

[5] = target: T1, E. histolytica pantothenate kinase; assay type: biochemical
recombinant EhPanK = assay: Regulation of EhPanK by CoA, acetyl CoA and malonyl CoA (double-reciprocal plots); assay type: biochemical, Entamoeba histolytica; settings: inhibitor 0, 0.5, 2 mM; for Mechanism of inhibition with respect to ATP: various ATP, 0.2 mM pantothenate; for Mechanism of inhibition with respect to pantothenate: various pantothenate, 100 μM ATP
Description: PanK from other organisms was reported to be negatively regulated by allosteric inhibition with CoA, acetyl CoA, and malonyl CoA ([Calder et al., 1999]; [Takagi et al., 2010]; [Vallari et al., 1987]). […] The mechanisms of inhibition by acetyl CoA were not clear but seemed to be the mixed type with respect to ATP and pantothenate (Fig. 3).
Fig. 2 Effect of CoA, acetyl CoA, and malonyl CoA on the pantothenate kinase activities. Relative activities of EhPanK in the presence of various concentrations of inhibitors to those without inhibitors are shown. […] The assays were carried out three times independently, and the results are shown as means ± SEM of triplicates.
Fig. 3 Double-reciprocal plots of the recombinant EhPanK in the presence of CoA (A and B), malonyl CoA (C and D), or acetyl CoA (E and F). The enzymatic activities were determined with various concentrations of ATP and 0.2 mM pantothenate (A, C, and E) or various concentrations of pantothenate and 100 μM ATP (B, D, and F), in the presence of three concentrations of inhibitors (0, 0.5, and 2 mM). Data are shown in means ± SEM of triplicate analyses.

[6] = recombinant EhPanK, 100 μM pantothenate, 100 μM ATP, 37 °C, 2 h, mean ± SEM of three replicates, read-out: IC50 against EhPanK activity
[7] = cation 5 mM, 0.2 mM pantothenate, 37 °C, pH 6.0, relative to MgCl2, ND = not detected

T1 sequence (B1N2P3 entry or part of it): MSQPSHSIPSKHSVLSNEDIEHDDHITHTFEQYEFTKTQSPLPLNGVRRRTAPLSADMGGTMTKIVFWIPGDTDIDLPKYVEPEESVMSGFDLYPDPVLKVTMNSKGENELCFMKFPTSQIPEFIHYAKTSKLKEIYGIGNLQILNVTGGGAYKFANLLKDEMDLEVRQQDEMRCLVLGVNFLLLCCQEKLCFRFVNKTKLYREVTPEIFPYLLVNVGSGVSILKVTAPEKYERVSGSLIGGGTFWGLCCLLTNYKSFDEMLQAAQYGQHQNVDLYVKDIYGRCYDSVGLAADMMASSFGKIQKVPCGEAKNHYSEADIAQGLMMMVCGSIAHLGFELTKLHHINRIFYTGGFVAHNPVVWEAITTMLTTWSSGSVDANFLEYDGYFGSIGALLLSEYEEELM
Chain of E. histolytica PanK (EhPanK) recombinant enzyme (B1N2P3 entry or part of it): as above

Cc1cn([C@H]2C[C@H](O)[C@@H](COP(=O)(O)OP(=O)(O)OP(=O)(O)O)O2)c(=O)[nH]c1=O [TTP]
Relative activity (phosphoryl donor) [1]: 5.4 ± 1.9%

CCCCC/C=C\CCC(=O)N[C@H]1[C@H](Oc2c3cc4cc2Oc2ccc(cc2Cl)[C@@H](O[C@@H]2O[C@H](CO)[C@@H](O)[C@H](O)[C@H]2NC(C)=O)[C@@H]2NC(=O)[C@H](NC(=O)[C@@H]4NC(=O)[C@H]4NC(=O)[C@@H](Cc5ccc(c(Cl)c5)O3)NC(=O)[C@H](N)c3ccc(O)c(c3)Oc3cc(O)cc4c3)c3ccc(O)c(c3)-c3c(O[C@H]4O[C@H](CO)[C@@H](O)[C@H](O)[C@@H]4O)cc(O)cc3[C@@H](C(=O)O)NC2=O)O[C@H](CO)[C@@H](O)[C@@H]1O [Teicoplanin]
IC50 ([2]; read-out: IC50 against EhPanK activity, recombinant EhPanK, 100 μM pantothenate, 100 μM ATP, 37 °C, 2 h, mean ± SEM of three replicates): 26.3 ± 2.6 µM

CC(/C=C/C(O)=C1/C(=O)CNC1=O)=C\C(C)C1OC2(C)OC(C(=O)C3OC32C)C1C (stereo not shown) [Tirandamycin A]
IC50 ([3]; Entamoeba histolytica): < 20 µM | IC50 [3]: 13.7 ± 4.85 µM | IC50 [2, 6]: 229 ± 3.4 µM | IC50 [4]: 144 ± 3.8 µM

Nc1nc2c(ncn2[C@@H]2O[C@H](COP(=O)(O)OP(=O)(O)OP(=O)(O)O)[C@@H](O)[C@H]2O)c(=O)[nH]1 [GTP]
Relative activity (phosphoryl donor) [1]: 78.8 ± 4.9%

[Cl][Cu][Cl] [CuCl2]
Relative activity (metal) [5, 7]: 84.3 ± 4.7%

CC[C@H]1OC(=O)[C@H](C)[C@@H](O[C@H]2C[C@@](C)(OC)[C@@H](O)[C@H](C)O2)[C@H](C)[C@@H](O[C@@H]2O[C@H](C)C[C@H](N(C)C)[C@H]2O)[C@](C)(O)C[C@@H](C)C(=O)[C@H](C)[C@@H](O)[C@]1(C)O [Erythromycin A]
IC50 ([3]; Entamoeba histolytica): 156 ± 20.6 µM | IC50 [2, 6]: 131 ± 6 µM | IC50 [4]: > 136 µM

[Cl-].[Cl-].[Co+2] [CoCl2]
Relative activity (metal) ([5]; pH 6): 74.2 ± 6.1%

O=C(Cc1cccs1)N[C@@H]1C(=O)N2C(C(=O)[O-])=C(C[n+]3ccccc3)CS[C@H]12 [Cephaloridine]
IC50 ([3]; Entamoeba histolytica): 246 ± 34.9 µM | IC50 [2, 6]: 230 ± 10.1 µM | IC50 [4]: 48.2 ± 3.61 µM

[H]/N=C(/N)N[C@H]1[C@H](O)[C@@H](O)[C@H](O[C@@H]2O[C@@H](C)[C@](O)(C=O)[C@H]2O[C@@H]2O[C@@H](CO)[C@H](O)[C@@H](O)[C@@H]2NC)[C@@H](N/C(N)=N\[H])[C@@H]1O [Streptomycin]
IC50 ([3]; Entamoeba histolytica): 77.5 ± 1.52 µM | IC50 [2, 6]: 155 ± 10.1 µM | IC50 [4]: > 172 µM

CC(C)(COP(=O)(O)OP(=O)(O)OC[C@H]1O[C@@H](n2cnc3c(N)ncnc32)[C@H](O)[C@@H]1OP(=O)(O)O)[C@@H](O)C(=O)NCCC(=O)NCCSC(=O)CC(=O)O [malonyl CoA]
Mechanism of inhibition with respect to ATP (recombinant EhPanK): competitive | Mechanism of inhibition with respect to pantothenate (recombinant EhPanK): non-competitive

[Ca+2].[Cl-].[Cl-] [CaCl2]
Relative activity (metal) [5, 7]: 17.0 ± 3.0%

O=P(O)(O)OP(=O)(O)OP(=O)(O)O [Tripolyphosphate]
Relative activity (phosphoryl donor) [1]: 16.9 ± 0.8%

CC(=O)[C@H]1O[C@@H](Oc2ccc(/C=C(\C)C(=O)N[C@@H]3[C@H](O)[C@@H](O)[C@H]4OCO[C@H]4[C@@H]3O)cc2O)[C@@H](O)[C@@H]1O [Hygromycin A]
IC50 ([3]; Entamoeba histolytica): 142 ± 16.3 µM | IC50 [2, 6]: 194 ± 17.8 µM | IC50 [4]: > 196 µM

O=c1ccn([C@@H]2O[C@H](COP(=O)(O)OP(=O)(O)OP(=O)(O)O)[C@@H](O)[C@H]2O)c(=O)[nH]1 [UTP]
Relative activity (phosphoryl donor) [1]: 16.6 ± 1.2%

CC(C)(COP(=O)(O)OP(=O)(O)OC[C@H]1O[C@@H](n2cnc3c(N)ncnc32)[C@H](O)[C@@H]1OP(=O)(O)O)[C@@H](O)C(=O)NCCC(=O)NCCS [CoA, Coenzyme A]
Mechanism of inhibition with respect to ATP (recombinant EhPanK): competitive | Mechanism of inhibition with respect to pantothenate (recombinant EhPanK): uncompetitive

Nc1ccn([C@@H]2O[C@H](COP(=O)(O)OP(=O)(O)OP(=O)(O)O)[C@@H](O)[C@H]2O)c(=O)n1 [CTP]
Relative activity (phosphoryl donor) [1]: 1.4 ± 0.2%

CCC1OC(=O)CC(O)C(C)C(O[C@@H]2O[C@H](C)C[C@H](N(C)C)[C@H]2O)C(CC=O)CC(C)C(=O)/C=C/C2(C)OC2C1C (stereo partly shown) [Rosamycin]
IC50 ([3]; Entamoeba histolytica): 56.3 ± 11.7 µM | IC50 [2, 6]: 166 ± 2 µM | IC50 [4]: 34.4 ± 2.71 µM

[Cl][Mn][Cl] [MnCl2]
Relative activity (metal) [5, 7]: 83.2 ± 2.0%

Polyphosphate
Relative activity (phosphoryl donor) [1]: 16.2 ± 2.5%

COc1cccc2c1C(=O)C1=C(C[C@@H](CC(=O)O)O[C@@H]1C)C2=O [O-methylnanaomycin A]
IC50 [2, 6]: 284 ± 28.7 µM | IC50 [4]: 19 ± 0.49 µM

Cc1ncc([N+](=O)[O-])n1CCO [Metronidazole]
IC50 ([3]; Entamoeba histolytica): 0.66 ± 0.05 µM | IC50 [4]: > 100 µM

O=C1OC2(OC=C(c3ccccc3)C2=O)c2ccccc21 (stereo not shown) [Fluorescamine]
IC50 ([3]; Entamoeba histolytica): 168 ± 20.1 µM | IC50 ([2]; read-out: IC50 against EhPanK activity): 346 ± 14.7 µM | IC50 [4]: 288 ± 17.8 µM

C[C@H]1O[C@H](O[C@H]2[C@H](O)[C@@H](O)[C@@H](O)[C@H](O)[C@@H]2O)[C@@H](N)C[C@@H]1NC(=N)C(=O)O [Kasugamycin]
IC50 ([3]; Entamoeba histolytica): 66.2 ± 13.7 µM | IC50 [2]: 254 ± 4.7 µM | IC50 [4]: 87.1 ± 7.22 µM

Nc1ncnc2c1ncn2[C@@H]1O[C@H](COP(=O)(O)OP(=O)(O)OP(=O)(O)O)[C@@H](O)[C@H]1O [ATP]
Relative activity (phosphoryl donor) [1]: 100.0 ± 4.1%

CS[C@H]1SC[C@H]2C(=O)N(C)[C@@H](C(C)C)C(=O)OC[C@@H](NC(=O)c3cnc4ccccc4n3)C(=O)N[C@@H](C)C(=O)N(C)[C@@H]1C(=O)N(C)[C@@H](C(C)C)C(=O)OC[C@@H](NC(=O)c1cnc3ccccc3n1)C(=O)N[C@@H](C)C(=O)N2C [Echinomycin]
IC50 [2, 6]: 77.8 ± 4.4 µM | IC50 [4]: < 0.38 µM

NC[C@@H]1O[C@H](O[C@H]2[C@@H](O)[C@H](O[C@@H]3[C@@H](O)[C@H](N)C[C@H](N)[C@H]3O[C@H]3O[C@H](CN)[C@@H](O)[C@H](O)[C@H]3N)O[C@@H]2CO)[C@H](N)[C@@H](O)[C@@H]1O [Neomycin]
IC50 ([3]; Entamoeba histolytica): < 20 µM | IC50 [3]: 10.6 ± 1.12 µM | IC50 [2, 6]: 147 ± 6.8 µM | IC50 [4]: > 163 µM

Nc1ncnc2c1ncn2[C@H]1C[C@H](O)[C@@H](COP(=O)(O)OP(=O)(O)OP(=O)(O)O)O1 [dATP]
Relative activity (phosphoryl donor) [1]: 19.3 ± 4.3%

[Cl][Fe][Cl] [FeCl2]
Relative activity (metal) [5, 7]: 72.8 ± 1.7%

[Cl-].[Cl-].[Mg+2] [MgCl2]
Relative activity (metal) [5, 7]: 100.0 ± 0.0%

LiCl2
Relative activity (metal) [5, 7]: 34.5 ± 1.8%

CC(/C=C/C(=O)NO)=C\[C@@H](C)C(=O)c1ccc(N(C)C)cc1 [Trichostatin]
IC50 [2, 6]: 310 ± 14.9 µM | IC50 [4]: 2.62 ± 0.49 µM

[Cl-].[Cl-].[Zn+2] [ZnCl2]
Relative activity (metal) [5, 7]: 3.9 ± 0.7%

Reference: PMC6114107, “Characterization and validation of Entamoeba histolytica pantothenate kinase as a novel anti-amebic drug target” (International Journal for Parasitology: Drugs and Drug …, 2018)
